According to US11366116B1, “Real time autonomous surveillance of pathogens” (priority 2017, dated 2022):

Test system: Culex tarsalis mosquitoes
Assay: Observation of mosquitoes feeding upon scented, spun (cotton candy) baits
Type: in vivo
Conditions: for Number of mosquitos observed feeding each scent: scented spun cotton candy bait
Source text: One strategy for a solid bait that we tested was a “cotton candy” or spun sugar bait (FIG. 11). The cotton candy could be pressed into the feeding well, over and on top of a dried enzyme pellet and a ball bearing for magnetic mixing. We anticipated this would allow a large surface area for mosquitoes to feed, as well as dissolve instantly upon adding a drop of rehydration buffer. Plain cotton candy made from pure sucrose turned out to be unstable upon storage for more than a few days, and we subsequently devised a way to modify the cotton candy by melting a polymer (PEG) with the sugar prior to spinning, to stabilize it against shriveling in ambient humidity. […] Based on this experiment (Table 1), we determined that both honey and plumeria could be used as attractants for sugar-feeding Culex tarsalis mosquitoes.

O=CCc1ccccc1 [Phenylacetaldehyde]
Number of mosquitos observed feeding each scent (Day 0): 0 | Number of mosquitos observed feeding each scent (Day 1): 5 | Number of mosquitos observed feeding each scent (Day 2): 1 | Number of mosquitos observed feeding each scent (Day 3): 4 | Number of mosquitos observed feeding each scent (Day 4): 3 | Number of mosquitos observed feeding each scent, Sum (Sum of Day 0 to Day 4): 13
